In patent US9675699B2, “Cooling enhancing compositions” (International Flavors & Fragrances Inc., priority 2011, dated 2017):

Experiments:
[1] = system: cooling strength; details: with respect to WS-3 = 10.0; cited from earlier work
[2] = system: cooling; assay: Inherent cooling of materials tasted alone in water; format: in vivo, human
[3] = system: cooling profile of menthol; assay: Example II: cooling profile versus 5 ppm menthol control, group of five trained panelists; format: in vivo, human; details: for Average Increase: versus 5 ppm menthol control
Protocol: Responsible actives were determined by comparing the cooling profile of menthol alone (the control) against the solutions with either menthol or cooling enhancing compositions or menthol with the active(s). The profile attributes consist of onset, location, intensity and duration of cooling. Control: 5mg menthol/1 Liter of water (=5 ppm) The use level of 5 ppm is a standard use level within our research facility when looking for cooling enhancement. The levels of the actives were determined after tasting them at varying concentrations within the range of 1 ppm to 200 ppm. The levels presented were deemed to be optimal by offering the greatest functionality. The cooling enhancing compositions listed below were dosed on top of the menthol control. The results below were obtained by a group of five trained panelists.)

[4] = 5 ppm Menthol + 50 ppm test substance in water
[5] = 5 ppm Menthol + 50 ppm test substance

CC1CCC(C(C)C)C(OC(=O)C(C)O)C1 (stereo not drawn) [Menthyl Lactate]
relative cooling strength [1]: about 2.9

CC(C)[C@@H]1CC[C@@H](C)C[C@H]1OC(=O)CCCC(=O)O [monomenthyl glutarate]
relative cooling strength [1]: about 3.5

CNC(=O)C1C(C)CCCC1(C)C (stereo not drawn) [N,2,2,6-Tetramethylcyclohexane-l-carboxamide]
relative cooling strength [1]: about 1.0

COc1cc([C@@H]2CC(=O)c3c(O)cc(O)cc3O2)ccc1O [Homoeriodictyol]
inherent cooling (taste observation) ([2]; 5 ppm in water): taste neutral, slightly drying, no cooling
inherent cooling (taste observation) ([2]; 25 ppm in water): drying, not cooling
Taste Descriptors ([3]; 5 ppm Menthol + 5 ppm test substance in water): faster onset of cooling than menthol alone, cooling localized on front of tongue, cold as in temperature, slight teeth cooling, fully delocalized cooling after 10 seconds reaching back of throat and roof of mouth, mild cooling on breath-in, diminished menthol burn
Average Increase ([3]; 5 ppm Menthol + 5 ppm test substance): 66%

CCNC(=O)C1CC(C)CCC1C(C)C (stereo not drawn) [WS-3]
relative cooling strength [1]: 10.0

CCOC(=O)CNC(=O)[C@@H]1C[C@H](C)CC[C@H]1C(C)C [WS-5]
relative cooling strength [1]: about 16.7

O=C1C[C@@H](c2ccc(O)c(O)c2)Oc2cc(O)cc(O)c21 [Eriodictyol]
inherent cooling (taste observation) ([2]; 35 ppm in water): slight irritation (piperin-like burn) without cooling
Taste Descriptors [3, 4]: Cooling localized on middle of tongue stronger than control, more intense in back of throat on breath-in, does not trigger a faster onset, cooling builds more after expectorating and on breath-in, sharpened the intensity of cooling in the center and sides of tongue and roof of mouth
Average Increase [3, 5]: 56%

O=c1cc(-c2ccc(O)c(O)c2)oc2cc(O)cc(O)c12 [Luteolin]
inherent cooling (taste observation) ([2]; 50 ppm in water): slightly stale flavor, no cooling
Taste Descriptors [3, 4]: Equivalent cooling as compared to control, localized on front tip of tongue, gums and roof of mouth, did not expedite onset but smoothed upfront mouthfeel, slight irritation to tongue and back of mouth/ throat cavity
Average Increase [3, 5]: 32%

CNC(=O)C(C)(C(C)C)C(C)C [WS-23]
relative cooling strength [1]: about 5.0

CC(C)[C@@H]1CC[C@@H](C)C[C@H]1C(=O)NC(C)(C)C [WS-14]
relative cooling strength [1]: about 5.0

COc1ccc([C@@H]2CC(=O)c3c(O)cc(O)cc3O2)cc1O [Hesperetin]
Taste Descriptors [3, 4]: Sweet, no impact on cooling, slightly bitter, drying, cooling is delocalized and about the same strength as control
Average Increase [3, 5]: 0%

CC1CCC(C(C)C)C(C(=O)OCC(O)CO)C1 (stereo not drawn) [WS-30]
relative cooling strength [1]: about 1.5

CC1CCC(C(C)C)C(O)C1 (stereo not drawn) [Menthol]
Taste Descriptors ([3]; 5 ppm Menthol alone in water (control)): thin and moderate cooling, slight burn, some bitterness, cooling on front, tip of tongue and gums, mild cooling on breath-in, slightly harsh and sharp
